Data from patent US20220241416A1, “METHODS FOR THE IDENTIFICATION OF SARM1 NADASE ACTIVITY INHIBITORS AND USES THEREOF” (Bar Ilan University, priority 2021, published 2022).
Like-named read-outs stand apart in the source and are kept apart here. Blank lines part the entries; values can stand above or below the compound they belong to.

Tests used:
[1] = target: T1, hSARM1 (Homo sapiens, UniProt Q6SZW1); assay: In vitro hSARM1 NADase activity, Resasurin assay; format: biochemical
T1 construct: hSARM1w.t; (26ERL . . . GPT724) that was not mutated in E642, was also expressed and isolated; 6xHis (N); TEV cleavage site (N); made in house; host or cells: HEK293F suspension cells
T1 sequence (Q6SZW1 with tags, fused parts or gaps): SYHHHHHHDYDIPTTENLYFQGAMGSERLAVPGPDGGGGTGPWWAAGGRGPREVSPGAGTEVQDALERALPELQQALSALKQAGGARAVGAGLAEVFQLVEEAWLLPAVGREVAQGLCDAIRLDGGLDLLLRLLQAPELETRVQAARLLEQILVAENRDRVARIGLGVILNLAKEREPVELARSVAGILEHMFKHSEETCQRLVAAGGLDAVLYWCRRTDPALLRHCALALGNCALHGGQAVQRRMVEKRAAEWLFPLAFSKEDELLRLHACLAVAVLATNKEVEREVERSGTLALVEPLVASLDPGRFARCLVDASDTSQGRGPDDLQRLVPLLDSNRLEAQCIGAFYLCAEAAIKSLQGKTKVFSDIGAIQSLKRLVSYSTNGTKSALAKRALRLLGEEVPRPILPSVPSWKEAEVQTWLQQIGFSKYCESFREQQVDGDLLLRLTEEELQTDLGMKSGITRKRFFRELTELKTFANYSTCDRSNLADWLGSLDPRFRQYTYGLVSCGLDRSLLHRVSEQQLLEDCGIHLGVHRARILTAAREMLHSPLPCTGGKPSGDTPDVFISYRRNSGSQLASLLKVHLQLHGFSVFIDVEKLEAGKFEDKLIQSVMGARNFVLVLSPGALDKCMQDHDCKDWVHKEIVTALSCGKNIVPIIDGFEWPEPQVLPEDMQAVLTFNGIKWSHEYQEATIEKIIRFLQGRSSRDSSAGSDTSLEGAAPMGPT
Description: For quantitation of hSARM1 NADase activity and the inhibitory effect of selected compounds (FIG. 6F; FIG. 7A-7B), purified hSARM1w.t. and hSARM1E642Q proteins were first diluted to 400 nM concentration in 25 mM HEPES pH 7.5, 150 mM NaCl, and then mixed in 25° C. with 1 uM of NAD+(in the same buffer) with a 1:1 v/v ratio. All inhibitors were diluted with the same buffer, and the pH values were measured and if necessary titrated to 7.5. Inhibitors were pre-incubated for 20 min with hSARM1 in 25° C. before mixing with NAD+. At designated time points, reactions were quenched by placing the reaction tubes in 95° C. for 2 min. Measurement of NAD+ concentrations was made by a modified enzymatic coupled cycling assay (K. S. Kanamori et al., NAD. Bio Protoc 8, (2018)). The reaction mix, which includes 100 mM Phosphate buffer pH=8, 0.78% ethanol, 4 uM FMN (Riboflavin 5′-monophosphate sodium salt hydrate), 27.2 U/ml Alcohol dehydrogenase (SIGMA), 1.8 U/ml Diaphorase (SIGMA) and freshly dissolved (in DDW) 8 uM Resasurin (SIGMA), was added to each sample at 1:1 (v/v) ratio and then transferred to 384-well black plate (Corning). Fluorescent data was measured using a SynergyHI (BioTek) plate reader at 554-nm excitation and 593-nm emission wavelengths. Standard curve equation for calculation of NAD+ concentration was created for each assay from constant NAD+ concentrations.

[2] = target: T2, zfSARM1 (Danio rerio, UniProt F1QWA8); assay: Kinetic parameters of zfSARM1, substrate inhibition fit; format: biochemical, Zebrafish
T2 sequence (F1QWA8 1-713): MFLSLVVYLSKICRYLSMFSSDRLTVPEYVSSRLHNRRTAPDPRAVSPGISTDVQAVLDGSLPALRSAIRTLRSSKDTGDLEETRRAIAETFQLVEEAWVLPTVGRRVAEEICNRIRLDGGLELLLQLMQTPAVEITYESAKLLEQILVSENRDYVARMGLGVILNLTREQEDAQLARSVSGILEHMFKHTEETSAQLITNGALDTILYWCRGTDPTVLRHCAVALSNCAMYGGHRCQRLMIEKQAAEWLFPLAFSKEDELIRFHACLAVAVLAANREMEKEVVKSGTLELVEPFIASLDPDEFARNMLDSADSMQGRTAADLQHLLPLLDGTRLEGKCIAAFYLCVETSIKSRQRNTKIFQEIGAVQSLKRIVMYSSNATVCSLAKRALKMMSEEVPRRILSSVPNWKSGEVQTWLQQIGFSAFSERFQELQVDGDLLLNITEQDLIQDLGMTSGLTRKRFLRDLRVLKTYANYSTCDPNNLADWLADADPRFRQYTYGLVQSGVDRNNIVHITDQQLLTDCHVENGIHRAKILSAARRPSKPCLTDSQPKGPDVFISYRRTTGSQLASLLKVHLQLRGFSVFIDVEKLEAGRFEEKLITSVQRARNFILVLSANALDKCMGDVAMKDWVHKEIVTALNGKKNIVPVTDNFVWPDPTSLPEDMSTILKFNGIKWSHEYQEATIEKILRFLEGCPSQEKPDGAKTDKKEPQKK
Description: FIG. 14C. […] The kinetic parameters were determined from plots of reaction velocity of NAD+ consumption versus substrate (NAD+) concentration and then fitted to the Michaelis-Menten equation (Km and Vmax) or substrate inhibition equation (Ki) using non-linear curve fit in GraphPad Prism. Kcat was calculated by dividing the Vmax with protein molar concentration.
For Vmax and Km determination, the NADase activity assay was performed with several different NAD+ substrate concentrations and sampled in constant time points. For each NAD+ concentration, linear increase zone was taken for slope (V0) calculation. All data were than fitted to the Michaelis-Menten equation using non-linear curve fit in GraphPad Prism software. Kcat was calculated by dividing the Vmax with protein molar concentration.

[3] = target: T1, hSARM1; assay: eNAD-based NADase assay; format: biochemical; details: 1:10 eNAD:NAD+; 400 nM enzyme; activity decreases at higher concentrations
Description: FIG. 7D: Rate of change in nucleotide fluorescence under steady-state conditions of eNAD hydrolysis by hSARM1. Reactions were initiated by mixing 400 nM enzyme with different concentrations of 1:10 eNAD+: NAD+(mol/mol) mixtures. Three repeats, standard deviation error bars.
Serial dilutions were made with 25 mM HEPES pH 7.5, 150 mM NaCl buffer and the final mix was transferred to 384-well black plate (Corning). Reaction started by the addition of hSARM1 to a final concentration 400 nM. Then, eNAD degradation rate was monitored by fluorescence reading (330-nm excitation and 405-nm emission wavelengths) of the plate using a SynergyHI (BioTek) in 25° C. for 3 hours. For each NAD+ concentration, a control reaction without SARM1 was measured and subtracted from the + hSARM1 reading and the slope of the linear area was calculated. For the final plot, average of slopes from 3 separate assays for each concentration was calculated.

Compound: Nc1ncnc2c1ncn2[C@@H]1O[C@H](COP(=O)(O)OP(=O)(O)OP(=O)(O)O)[C@@H](O)[C@H]1O [ATP]
inhibition of hSARM1 NADase activity ([1]; analyzed as for glycerol, FIG. 7A): inhibits the NADase activity of hSARM1 in a dose-dependent manner

Compound: NC(=O)c1ccc[n+]([C@@H]2O[C@H](COP(=O)([O-])OP(=O)(O)OC[C@H]3O[C@@H](n4cnc5c(N)ncnc54)[C@H](O)[C@@H]3O)[C@@H](O)[C@H]2O)c1 [NAD+, Nicotinamide adenine dinucleotide]
Ki ([2]; apparent inhibition by substrate, read-out: Ki for NAD+, zfSARM1): 1350 µM
Ki ([2]; substrate inhibition equation, read-out: Ki, inhibition by the substrate NAD+, zfSARM1): 1300 µM
NAD+ concentration at the highest rate of hydrolysis [3]: 100 µM

inhibition of hSARM1 NADase activity ([1]; 15% glycerol, measured 20 minutes after adding 0.5 μM NAD+): 72%
Compound: OCC(O)CO [glycerol]
